# According to the supplement of paper PMC8837787:
# Tested on: Saccharomyces cerevisiae ABC16-Green Monster
# Experiment: not given
# Settings: 18 h; 30 °C; YPD
# Procedure: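 Growth inhibition of the drug-sensitive S. cerevisiae ABC16-Green Monster strain (16 ABC transporters deleted) in YPD at 30 °C for 18 h. […] dilution series […] in biological replicates; IC50 from OD600 (18 h minus 0 h) fitted by variable-slope nonlinear regression in GraphPad Prism. Library compounds were first screened at 150 µM, and only those with at least 70% inhibition went to dose-response; the rest are marked inactive.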
row,Compound,IC50 growth inhibition
1,Cc1[nH]c2ccccc2c1C(c1cccs1)N1CCN(C)CC1 (stereo not given),35.9 µM

# Tested on: Saccharomyces cerevisiae ABC16-Green Monster
# Experiment: growth inhibition at single dose (up to 150 µM), below the 70% cut-off for dose-response; higher = more potent
# Settings: 18 h; 30 °C; YPD
# Method in brief: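 Values are percent growth inhibition of drug-sensitive S. cerevisiae ABC16-Green Monster cells. Cells grown overnight in YPD at 30 °C were diluted to log phase (OD600 0.1–0.2), and each library compound was added at a single dose of 150 µM to 200 µl culture per well in 96-well plates, in biological duplicates, beside untreated cultures. OD600 was read at 0 h and after 18 h at 30 °C, and compounds under 70% in both replicates were not taken to dose-response.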
row,Compound,growth inhibition at single dose
1,Cn1/c(=N/C(=O)c2ccc(=O)[nH]c2)sc2ccccc21,< 70%
2,Cc1sc(NC(=O)c2ccccc2)c(C(c2cccs2)N2CCN(c3ccccc3)CC2)c1C (stereo not given),< 70%
3,Cc1ccc(NC(=O)c2cc3c(s2)CCCCCC3)nc1,< 70%
4,Cc1cc(C(=O)Nc2ccc(-c3ccccc3)cc2)no1,< 70%
5,CCOc1cc2c(cc1CNC(=O)c1cnc3cc(C)nn3c1C)OC(C)C2 (stereo not given),< 70%
6,COc1cc2c(cc1OC)CN(CCNc1ncnc3sccc13)CC2,< 70%
7,O=C1c2ccc3c4c(ccc(c24)C(=O)N1CCCCO)C(=O)N(CCCCO)C3=O,< 70%
8,CCN(CC)CCNc1ncnc2c1[nH]c1ccc(Cl)cc12,< 70%
9,CC1c2cccc(O)c2C(O)=C2C(=O)C3(O)C(O)=C(C(N)=O)C(=O)C(N(C)C)C3C(O)C21 (stereo not given) [Doxycycline],< 70%
10,CCn1c2ccccc2c2cc(NC(C)C(=O)N3CCNC3=O)ccc21 (stereo not given),< 70%
11,O=C(Nc1cccc2ccccc12)N1CCN(c2ncccc2C(F)(F)F)CC1,< 70%
12,COc1ccc(-c2csc(N/C=C3/C(=O)NC(=O)c4ccccc43)n2)cc1OC,< 70%
13,Cc1ccc(C(=O)OC(C)C(=O)N2CCCC2)cc1S(=O)(=O)N1CCCCC1 (stereo not given),< 70%
14,O=C(Nc1ccnc(-c2cccnc2)n1)c1cc(C(F)(F)F)cc(C(F)(F)F)c1,< 70%
15,O=C(COc1ccc2[nH]c3ccccc3c(=O)c2c1)N1c2ccccc2OCC1c1ccccc1 (stereo not given),< 70%
16,Cc1ccc(Nc2nc(N)c3ccccc3n2)cc1Cl,< 70%
17,Cc1ccccc1C(=O)N1N=C(Nc2ccccc2)SC1(C)C,< 70%
18,Nc1c(C(=O)c2ccc3c(c2)NC(=O)CO3)sc2c1c(=O)[nH]c(=O)n2Cc1ccccc1,< 70%
19,Cc1cc(C(=O)CSc2nc3ccccc3[nH]2)c(C)n1CC1CCCO1 (stereo not given),< 70%
20,CCOc1cc2c(cc1OCC)C(c1cc(Cl)ccc1O)NCC2 (stereo not given),< 70%
21,Cc1nc2ccccc2c(O)c1CC=C(Cl)Cl,< 70%

row,Compound,growth inhibition at single dose
1,CS(=O)(=O)N1CCC(CCn2nc(Cc3cccc4ccccc34)c3c(N)ncnc32)CC1,< 70%
2,COc1nc(Nc2ccc(C(C)C)cc2)nc(OC)n1,< 70%
3,CO[C@H]1/C=C/O[C@@]2(C)Oc3c(C)c(O)c4c(O)c(/c(=C/NN5CCN(C)CC5)c(O)c4c3C2=O)=N\C(=O)/C(C)=C\C=C/[C@H](C)[C@H](O)[C@@H](C)[C@@H](O)[C@@H](C)[C@H](OC(C)=O)[C@@H]1C,< 70%
4,COC(=O)c1ccccc1NC(=O)/C=C/c1ccc(N2CCCS2(=O)=O)cc1,< 70%
5,O=C(Nc1cc(Cl)cc(Cl)c1)Nc1cc(Cl)cc(Cl)c1,< 70%
6,C=CCc1c(C)nc2ccccc2c1O,< 70%
7,CN(CC(=O)NC1CC1)C(=O)CNc1ccccc1Oc1ccccc1,< 70%
8,N#Cc1ccc(CN2CCCN(c3ncnc4sccc34)CC2)cc1,< 70%
9,CCC(=O)c1cn(S(=O)(=O)c2ccc(C)cc2)c2ccccc12,< 70%
10,O=C(Nc1ncccc1O)c1ccc(Cn2cccn2)cc1,< 70%
11,C#CCNS(=O)(=O)c1ccc(C(=O)Nc2ccccc2O)cc1,< 70%
12,Cc1c(CN2CCN(c3ccccn3)CC2)noc1-c1ccc(F)cc1,< 70%
13,Cc1ccc2oc(-c3cc(NC(=O)Cc4ccccc4)ccc3Cl)nc2c1,< 70%
14,NC(=O)c1cc(Br)ccc1OCCOc1ccccc1,< 70%
15,CC(=O)NCC1CN(c2ccc(-c3ccc(CO)cc3)c(F)c2)C(=O)O1 (stereo not given),< 70%
16,Cc1ccc(O)c(C(=O)c2c[nH]c(-c3nc4ccccc4[nH]3)c2)c1,< 70%
17,Nc1nc(Nc2cc(Cl)cc(Cl)c2)c2[nH]cnc2n1,< 70%
18,C[C@]1(O)C[C@@H](c2nc(-c3ccc4ccc(-c5ccccc5)nc4c3)c3c(N)nccn32)C1,< 70%
19,O=C(Nc1ccc(F)c(Cl)c1)c1[nH]nc2ccccc12,< 70%
20,O=C(Nc1nccs1)c1ccc(N2CCCCCC2)nc1,< 70%
21,Cn1ccnc1SCC(=O)Nc1ccc(C(=O)Nc2ncccc2O)cc1,< 70%

row,Compound,growth inhibition at single dose
1,CN1CCC(c2cc(-c3ccncc3)c(-c3ccc(F)cc3)[nH]2)CC1,< 70%
2,Cc1c(C)n(CCCO)c2ncn3nc(-c4ccc(F)cc4)nc3c12,< 70%
3,Cc1ccc(NS(=O)(=O)c2ccc(C(=O)Nc3ncccc3O)cc2)cc1,< 70%
4,COc1ccc(Nc2ccccc2NC(=O)c2ccc(O)nc2)cc1,< 70%
5,NC(=O)c1ccsc1NC(=O)CSc1ncc(-c2ccccc2)n1-c1ccccc1,< 70%
6,CC(C)(C)n1ncc(C(=O)NCCOc2ccccc2)c1C(F)(F)F,< 70%
7,CC(=O)NCCCc1ccc(C(=O)COC(=O)c2ccccc2-n2cnnn2)cc1,< 70%
8,Cc1ccc(NC(=O)c2cc(S(=O)(=O)NC(C)(C)C)ccc2C)nc1,< 70%
9,COc1cc(CN2CCC3(C=Cc4ccccc43)CC2)cc2c1OCO2,< 70%
10,COC(=O)c1cc(OC)c(OC)cc1NS(=O)(=O)c1ccc(OC)cc1,< 70%
11,CCc1cc(=O)n(C)c(SC(C)C(=O)Nc2ccc(F)cc2)n1 (stereo not given),< 70%
12,CCc1c(C)c(=N)c2ccccc2n1C,< 70%
13,N#Cc1nc(Cc2cccc3ccccc23)oc1N1CCN(C(c2ccccc2)c2ccccc2)CC1,< 70%
14,COc1ccc(OC)c(C2C3=C(CC(C)(C)CC3=O)N(c3ccc(Cl)c(Cl)c3)C3=C2C(=O)CC(C)(C)C3)c1,< 70%
15,O=C(NCc1nnc2n1CCCCC2)c1ccc(-c2ccc(F)cc2)o1,< 70%
16,OC(CNC1CCCC1)Cn1c2ccccc2c2ccccc21 (stereo not given),< 70%
17,CC/N=c1\scc(-c2ccc(Cl)cc2)n1/N=C/c1ccc[nH]1,< 70%
18,CCOc1cc(Cl)c(C(C)NC(=O)c2cccc(OC)c2)cc1OCC (stereo not given),< 70%
19,CC1=C(CC(=O)c2cccc([N+](=O)[O-])c2)C(=O)c2ccccc2C1=O,< 70%
20,Cc1nn(Cc2ccccc2)c(Cl)c1/C=C/C(=O)OC(C)C(=O)N1CCCC1 (stereo not given),< 70%
21,CS(=O)(=O)N1CCCc2cc(-c3csc(Nc4ccccn4)n3)ccc21,< 70%

row,Compound,growth inhibition at single dose
1,COc1ccc(Nc2cc(C)nc(-n3nc(C)cc3C)n2)cc1,< 70%
2,CC(Nc1ccc(Oc2cccc(F)c2)cc1)C(=O)N1CCNC1=O (stereo not given),< 70%
3,CSc1nc2nc(C)c(CCC(=O)N(CC(F)(F)F)C(C)C3CC3)c(C)n2n1 (stereo not given),< 70%
4,O=C(Nc1cccc(C2=NCCN2)c1)Nc1cccc(C2=NCCN2)c1,< 70%
5,N#CCN(CCCCN1CCN(c2ccc(F)cc2)CC1)C(=O)OCc1ccccc1,< 70%
6,Cc1cc(=O)n2nc(CSc3nc4ccc(Cl)cc4c(=O)n3CC(C)C)sc2n1,< 70%
7,Cc1nnc(NCc2cccc(Cl)c2)c2ccccc12,< 70%
8,O=C(CN1CCN(C(=O)/C=C/c2sc3ccccc3c2Cl)CC1)NC1CC1,< 70%
9,Cc1ccc(CC(=O)NCc2ccc(C#N)cc2)cc1,< 70%
10,O=C1C2=C(Nc3ccccc3SC2c2ccccc2)c2ccccc21 (stereo not given),< 70%
11,COC(=O)c1ccc(C2C3=C(O)CC(c4ccc(F)cc4)CC3=Nc3ccccc3N2C(=O)c2ccccc2)cc1 (stereo not given),< 70%
12,O=C1C=C/C(=N\Nc2ccc3ccccc3c2)c2cccnc21,< 70%
13,Cc1cc(C)c2cc(C(=O)Nc3ccc(N4CCN(C)CC4)nc3)[nH]c2c1,< 70%
14,CC1CC2=C(CC1CNCCCN(C)C)C(C)(C)CCC2 (stereo not given),< 70%
15,COc1ccc(NC(=O)C2c3ccccc3C(=O)N(CC(C)C)C2c2cccs2)cc1Cl (stereo not given),< 70%
16,CCCN(CCC)CCCNC(=O)c1cc2c(-c3ccc(OC)c(OC)c3)nn(C)c2s1,< 70%
17,COc1ccc(-c2csc3ncnc(Sc4nnc(-c5cccc(C)c5)n4CC(N)=O)c23)cc1,< 70%
18,Cc1noc(C)c1C(=O)OCC(=O)c1cc(C)n(-c2ccccc2F)c1C,< 70%
19,Cc1cc(NCC(C)C)c2n[nH]c(-c3ccccc3)c2n1,< 70%
20,COc1ccc(CNc2ncnc3ccccc23)cc1,< 70%
21,Cc1cc(N2CCCC2)nc(Nc2ccc(NC(=O)CCc3ccccc3)cc2)n1,< 70%
